Here are results for 6 compounds from US5866567A, “Diazepinones, their production and use” (Takeda Chemical Industries, Ltd., priority 1995, dated 1999).

Structures can show the parent of a compound that is named as a salt.

For test [1], the target named is T1, Human GnRH receptor (Homo sapiens, UniProt P30968).
T1 construct: expressed in transfected cells; host or cells: CHO (Chinese hamster ovary) cells, membrane fraction
T1 sequence (P30968 1-328): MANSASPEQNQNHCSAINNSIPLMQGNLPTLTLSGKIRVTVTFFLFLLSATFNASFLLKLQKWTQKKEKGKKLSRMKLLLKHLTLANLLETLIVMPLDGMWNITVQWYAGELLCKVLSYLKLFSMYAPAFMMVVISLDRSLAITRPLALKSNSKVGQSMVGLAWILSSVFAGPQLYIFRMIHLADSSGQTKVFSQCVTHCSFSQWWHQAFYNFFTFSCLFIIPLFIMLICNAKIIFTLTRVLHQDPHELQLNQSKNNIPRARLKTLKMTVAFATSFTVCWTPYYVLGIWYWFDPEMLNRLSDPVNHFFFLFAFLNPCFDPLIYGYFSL
Briefly: Human GnRH receptor binding inhibition assay (125I-leuprolerin, membrane fraction of CHO cells expressing human GnRH receptors). To be noted: CHO cell membrane fraction with human GnRH receptors, 25° C., 60 minutes, concentration series, Hill plot, read-out: Binding inhibitory activity (IC50). The method, then: Human GnRH receptor binding inhibition assay
(A) Preparation of ^125 I-leuprolerin
Ten (10) μl of 3×10^-4 M aqueous leuprolerin solution and 10 μl of 0.01 mg/ml lactoperoxidase solution were taken in a tube, and 10 μl of Na^125 I solution (37 MBq) was added. After stirring, 10 μl of 0.001% H2 O2 was added and the reaction was conducted at room temperature for 20 minutes. The reaction was stopped by adding 700 μl of 0.05% TFA solution, and the reaction mixture was purified by reversed HPLC. The HPLC parameters are shown below. The retention time of ^125 I-leuprolerin was 26-27 minutes.
Column: TSKgel ODS-80™ CTR (4.6 mm×10 cm)
Eluent: Solvent A (0.05%TFA) Solvent B (40%CH3 CN-0.05%TFA)
Min. 0 (100% Solvent A)--Min. 3 (100% Solvent A)--Min. 7 (50% Solvent A+50% Solvent B)--Min. 40 (100% Solvent B) Elution temperature: room temperature Elution flow rate: 1 ml/min.
CHO cells (10^9 cells) with human GnRH receptors expressed were floated on phosphate-buffered saline containing EDTA (PBS-EDTA) and centrifuged at 100×g for 5 minutes. To the pellet obtained was added 10 ml of a cell homogenate buffer (10 mM NaHCO3, 5 mM EDTA, pH 7.5) and the mixture was homogenized using a Polytron homogenizer. The homogenate was centrifuged at 400×g for 15 minutes and the supernatant was taken in an ultracentrifuge tube and recentrifuged at 100,000×g for 1 hour. The membrane fraction thus obtained as a pellet was suspended in 2 ml of assay buffer and centrifuged at 100,000×g for 1 hour. The membrane fraction recovered was resuspended in 20 ml of assay buffer and the suspension was portioned, stored at -80° C., and thawed when needed.
(C) Determination of the ^125 I-leuprolerin binding inhibition rate
The membrane fraction prepared in Step (B) was diluted with assay buffer to 200 μg/ml and the dilution was portioned into tubes, 188 μl per tube. Then, 2 μl of 2 mM solution of the test compound in 60% DMSO and 10 μl of 38 nM ^125 I-leuprolerin solution in the same solvent were simultaneously added to the tubes. To determine the maximum binding, a test mixture of 2 μl of 60% DMSO and 10 μl of 38 nM ^125 I-leuprolerin solution in the same solvent was prepared. For the determination of nonspecific binding, a test mixture of 2 μl of 100 μM leuprolerin solution in 60% DMSO and 10 μl of 38 nM solution of ^125 I-leuprolerin in the same solvent was also prepared. The mixtures were respectively allowed to react at 25° C. for 60 minutes and the reaction product in each tube was filtered through a poly(ethylene imine)-treated Whatman glass filter (GF-F) under suction. The radioactivity of ^125 I-leuprolerin remaining on the filter was determined using a γ-counter.
Using the measured values, the following equation was calculated to find the binding inhibition rate for each test compound.
Binding inhibition (%)=(TB-SB)/(TB-NSB)×100
[SB: radioactivity with the compound added
TB: maximum bound radioactivity
NBS: nonspecifically bound radioactivity]
Using a concentration series of each test compound, the concentration of the compound which inhibited the binding by 50% (IC50) was calculated by Hill plot.

Test [2] relates to GnRH. To be noted: relative to native GnRH; cited from earlier work.
The conditions of test [3]: repeated administration, receptor down-regulation; cited from earlier work.

What is called IC50 is the concentration at which inhibition is half-maximal. Regarding `COc1ccc(C(=O)Nc2ccc(CN3C(=O)[C@H]4CCC[C@H]4N(C(=O)CN4C(=O)c5ccccc5C4=O)c4ccccc43)cc2)cc1` (relative stereo) [Example 15, (3aR*,10aS*)-9-[4-(4-Methoxybenzamido)benzyl]-4-(phthalimidoacetyl)-2,3,3a,4,9,10a-hexahydrobenzo[b]cyclopenta[e][1,4]diazepin-10(1H)-one], the IC50 in test [1] was found to be 0.2 µM.

`O=C(Nc1ccc(CN2C(=O)[C@H]3CCC[C@H]3N(C(=O)CN3C(=O)c4ccccc4C3=O)c3ccccc32)cc1)c1ccc(Cl)cc1` (relative stereo) [Example 11, (3aR*,10aS*)-9-[4-(4-Chlorobenzamido)benzyl]-4-(phthalimidoacetyl)-2,3,3a,4,9,10a-hexahydrobenzo[b]cyclopenta[e][1,4]diazepin-10(1H)-one]: the IC50 in test [1] stood at 0.2 µM. Same read-out and setting: the same measure for `O=C(NCc1ccc(F)cc1)Nc1ccc(CN2C(=O)[C@H]3CCC[C@H]3N(C(=O)CN3C(=O)c4ccccc4C3=O)c3ccccc32)cc1` (relative stereo) [Example 31, (3aR*,10aS*)-9-[4-[3-(4-Fluorobenzyl)ureido]benzyl]-4-(phthalimidoacetyl)-2,3,3a,4,9,10a-hexahydrobenzo[b]-cyclopenta[e][1,4]diazepin-10(1H)-one]: 0.03 µM. Take Leuprolerin acetate: the “times as active as native GnRH” value in test [2] is recorded as 20-50 times. The production of testosterone entry in test [3] is on record as “cut down on the production of testosterone to the castrated level”. Regarding `C[C@H](NC(=O)Nc1ccc(CN2C(=O)[C@H]3CCC[C@H]3N(C(=O)CN3C(=O)c4ccccc4C3=O)c3ccccc32)cc1)c1ccccc1` (relative stereo) [Example 28, (3aR*,10aS*)-9-[4-[3-((S)-1-Phenylethyl)ureido]-benzyl]-4-(phthalimidoacetyl)-2,3,3a,4,9,10a-hexahydrobenzo[b]cyclopenta[e][1,4]diazepin-10(1H)-one], in test [1], the IC50 came out at 0.3 µM. Still for that read-out and setting: with `O=C(NCc1ccncc1)Nc1ccc(CN2C(=O)[C@H]3CCC[C@H]3N(C(=O)CN3C(=O)c4ccccc4C3=O)c3ccccc32)cc1` (relative stereo) [Example 34, (3aR*,10aS*)-4-(Phthalimidoacetyl)-9-[4-[3-(4-pyridylmethyl)ureido]benzyl]-2,3,3a,4,9,10a-hexahydrobenzo[b]cyclopenta[e][1,4]diazepin-l0(1H)-one hydrochloride] the figure was 0.08 µM.
